Laboratory results from patent US10294275B2, “Site-selective functionalization of glycopeptide antibiotics” (Yale University, priority 2012, dated 2019).
In brackets after ≈: the same amount, converted by molar mass.

Key:
Staphylococcus aureus = settings: cited from earlier work
[1] = tested on: methicillin-susceptible S. aureus, ATCC 29213; assay: Minimum inhibitory concentration against MSSA; assay type: cell-based; settings: Staphylococcus aureus, read-out: MIC, MSSA
Description: (§1) The chemistry described above enabled direct synthesis of eleven previously unknown analogs of 3. The minimum inhibitory concentrations (MICs) for the new analogs as antibacterial agents as determined.

[2] = tested on: vancomycin-susceptible enterococci, ATCC 29212; assay: Minimum inhibitory concentration against VSE; assay type: cell-based; settings: read-out: MIC, VSE
Description: as §1

[3] = tested on: vancomycin-resistant enterococci (VanA), MMX 486; assay: Minimum inhibitory concentration against VRE (VanA); assay type: cell-based; settings: Enterococcus, VRE, read-out: MIC, VRE (VanA)
Description: as §1

[4] = tested on: methicillin-resistant S. aureus, ATCC 43300; assay: Minimum inhibitory concentration against MRSA; assay type: cell-based; settings: Staphylococcus aureus, read-out: MIC, MRSA
Description: as §1

[5] = tested on: vancomycin-resistant enterococci (VanB), ATCC 51299; assay: Minimum inhibitory concentration against VRE (VanB); assay type: cell-based; settings: Enterococcus, read-out: MIC, VRE (VanB)
Description: as §1

SMILES: CN[C@H](CC(C)C)C(=O)N[C@H]1C(=O)N[C@@H](CC(N)=O)C(=O)N[C@H]2C(=O)N[C@H]3C(=O)N[C@H](C(=O)N[C@H](C(=O)O)c4cc(O)cc(O)c4-c4cc3ccc4O)[C@H](O)c3ccc(c(Cl)c3)Oc3cc2cc(c3O[C@@H]2O[C@H](CO)[C@@H](O)[C@H](O)[C@H]2O[C@H]2C[C@](C)(N)[C@H](O)[C@H](C)O2)Oc2ccc(cc2Cl)[C@H]1O [Vancomycin, vancomycin, reference compound]
- in vitro MIC against Staphylococcus aureus (Staphylococcus aureus): 0.25 to 10 µg/mL
- MIC [1]: 0.5 µg/mL (≈ 0.345 µM)
- MIC [2]: 2 µg/mL (≈ 1.38 µM)
- MIC [3]: > 64 µg/mL
- MIC [4]: 1 µg/mL (≈ 0.69 µM)
- MIC [5]: 16 µg/mL (≈ 11 µM)
